# According to patent US20090054403A1, “Treatment of Post-Traumatic Stress Disorder” (priority 2007, published 2009):
# What was measured:
# [1] = system: blood pressure, heart rate, motor activity; experiment: Radio-telemetry blood pressure, heart rate, motor activity in normotensive rats, 7 days; type: in vivo, normotensive Wistar rats (Crl:COBS(WI)BR)
# Procedure: Male Crl:COBS(WI)BR rats of 15 weeks old were used. Twenty-four rats were chronically implanted with telemetry implants (TA11PA-C40, Data Sciences, Inc., St. Paul, Minn.) for measurement of arterial blood pressure, heart rate and motor activity. The rat was anesthetized with pentobarbital sodium (60 mg/kg, ip) and its abdomen shaved. Under aseptic conditions, an incision was made on midline. The abdominal aorta was exposed, and cannulated with the catheter of a telemetry transmitter unit. After the transmitter was sutured to the abdominal musculature, the skin was closed. Each rat was allowed to recover for at least 2 weeks before being subjected to drug administration. Three days prior to the start of the experiment, the rats were randomly divided into 4 treatment groups: Vehicle (p.o.), Hydralazine (10 mg/kg, p.o.), nepicastat (30 mg/kg, p.o.), nepicastat (100 mg/kg, p.o.).
# Systolic blood pressure (SBP), diastolic blood pressure (DBP), mean blood pressure (MBP), heart rate (HR), and motor activity (MA) were monitored. After the pre-dose values for these parameters were established, respective groups of rats received a 7 day daily treatment of vehicle, nepicastat or hydralazine.
# Both nepicastat and hydralazine were prepared in water with traces of Tween 80. All doses were given orally to the rat in 10 ml/kg and were expressed as free base equivalents.
# A computerized data collection system was used to continuously collect data on SBP, DBP, MBP, HR, and MA. Data on each rat were collected every 5 min. for 10 sec. These were then averaged hourly and standard errors of the mean (SE) calculated. In this report, only data on MBP, HR and MA were presented. […] Body weights were recorded daily.
# blood pressure = experiment: Blood pressure in conscious, restrained normotensive rats; type: in vivo, Wistar-Kyoto rats; conditions: 10 mg/kg, 4 hours after dosing
# [2] = system: dopamine and norepinephrine in the left ventricle; experiment: Left ventricle catecholamines after two iv doses; type: in vivo, Sprague-Dawley rats; conditions: 15 mg/kg iv x2, 12 h apart, 6 h after last
# [3] = Tissue and plasma compound levels in beagle dogs, 10, 30, 60 mg/kg/day; type: in vivo
# Procedure: Thirty-two male beagle dogs, weighing 10-12 kg, were randomly assigned to one of the following 4 treatment groups (n=8 per group): nepicastat at 0 mg/kg/day (placebo), 10 mg/kg/day (5 mg/kg b.i.d.), 30 mg/kg (15 mg/kg b.i.d.), or 60 mg/kg/day (30 mg/kg b.i.d.). Dog numbers 1-16 were assigned as dose group A and dog numbers 17-32 as dose group B. The terminal surgery for tissue harvest was performed over 2 days with 16 animals studied per day. Two or 3 days before the first compound administration each dog was weighed and skin regions overlying both cephalic, saphenous and jugular veins were shaved. Dosing consisted of oral administration of one capsule with the second given 8-10 hr later. Dogs were dosed as scheduled on days 1-3. On day 4, prior to the AM dose, 3 ml of blood were obtained from a jugular vein for determination of baseline plasma compound levels. […]
# Ventricles were homogenized in 50 mM Tris-HCl, 5 mM Na2EDTA buffer (pH 7.4 at 4° C.) using a Polytron P-10 tissue disrupter (setting 10, 2×15 second bursts). […] Aquasol scintillation fluid was added to each vial and radioactivity determined by liquid scintillation counting. Saturation binding isotherms were analyzed after first converting total ligand concentrations to free ligand concentrations (total−bound=free). […]
# [4] = Plasma levels of nepicastat and N-acetyl metabolite in dogs, 2 mg/kg b.i.d.; type: in vivo, beagle dogs; conditions: 2 mg/kg bid, sampled 6 h after AM dose
# Procedure: Male Beagle dogs (Marshall farms, North Rose, N.Y.) weighing between 9-16 kg were used in the study. The animals were allowed water ad libitum and given food once daily at ˜10.00 AM. Animals were randomly assigned to one of the following treatment groups (n=8/group): placebo (empty capsule), or nepicastat at 2 mg/kg b.i.d (4 mg/kg/day). Each animal received 2 doses daily, morning and afternoon (8-10 hours apart). Daily blood samples (10 ml) were drawn 6 h after the AM dose for measurement of plasma levels of nepicastat and catecholamines. The blood was collected in tubes containing heparin and glutathione and centrifuged at −4° C. within 1 h of collection. The plasma was separated and divided into two samples, one for the measurement of plasma catecholamines and the other for analysis of nepicastat.
# Plasma NE, DA and EPI were anaylysed by HPLC using electrochemical detection. Plasma concentration of nepicastat was determined by HPLC using electrochemical detection.
smiles,measurement,setting,value
"Cl.NCc1c[nH]c(=S)n1[C@H]1CCc2c(F)cc(F)cc2C1 [nepicastat, (S)-5-Aminomethyl-1-(5,7-difluoro-1,2,3,4-tetrahydronaphth-2-yl)-2,3-dihydro-2-thioxo-1H-imidazole hydrochloride]",peak decrease in blood pressure (peak hypotensive effect),"[1]; 30 mg/kg/d po, day 2 at hour 13",−10 mmHg
same,peak antihypertensive response on day 1,"[1]; 100 mg/kg po, 22 hr after dosing",−11 mmHg
same,bradycardic response,"[1]; 100 mg/kg, day 2, 3 hours after dosing",−100 b/mm
same,effect on HR,"[1]; nepicastat 30 and 100 mg/kg (day 1), hydralazine 10 mg/kg (throughout)",did not consistently affect HR on day 1
same,decrease in pressure,blood pressure,−13 mmHg
same,"decrease in norepinephrine levels, left ventricle",[2],51%
same,"increase in dopamine levels, left ventricle",[2],472%
same,"increase in dopamine/norepinephrine ratio, left ventricle",[2],1117%
same,dose proportionality of concentration in plasma (Day 4) and tissue and plasma (Day 5),"[3]; 10, 30, 60 mg/kg/day, exceptions kidney medulla, plasma day 4",dose-proportional
same,levels in all tissues examined relative to plasma,[3]; Day 5,higher than those in plasma
same,time of peak plasma levels of the drug,[4],2 days post-dose
